In patent publication US20240409557A1, “5,6-FUSED AND 6,6-FUSED BICYCLIC ALCOHOLS AND ETHERS AND COMPOSITIONS FOR USE AS 15-PROSTAGLANDIN DEHYDROGENASE MODULATORS” (AMGEN INC., priority 2023, published 2024):

Tests used:
[1] = target: T1, human recombinant 15-PGDH (Homo sapiens, UniProt P15428); experiment: Recombinant 15-PGDH enzymatic inhibition assay (PGDH-Lumi, NADH signal); type: biochemical; conditions: recombinant 15-PGDH; 15 min pre-incubation, 60 min reaction with PGE2 and NAD+, NADH signal
T1 sequence (P15428 1-266): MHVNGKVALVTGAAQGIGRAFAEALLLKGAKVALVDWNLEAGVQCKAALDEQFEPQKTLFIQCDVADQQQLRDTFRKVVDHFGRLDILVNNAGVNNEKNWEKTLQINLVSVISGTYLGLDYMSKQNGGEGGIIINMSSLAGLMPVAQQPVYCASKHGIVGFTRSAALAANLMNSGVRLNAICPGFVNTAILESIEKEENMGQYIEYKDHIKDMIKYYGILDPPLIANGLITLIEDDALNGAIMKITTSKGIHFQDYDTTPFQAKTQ
How it was run: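 Recombinant 15-PGDH pre-incubated 15 min at room temperature with compound (22 concentrations, 2-fold dilutions) in 50 mM Tris pH 7.5, 0.01% Tween-20, […].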

[2] = target: T2, 15-PGDH in A549 cells (Homo sapiens, UniProt P15428); experiment: A549 cellular 15-PGDH assay (PGE2 accumulation, HTRF); type: cell-based; conditions: interleukin-stimulated, inhibitor 24 hrs, PGE2 by competitive HTRF, read-out: A549 Cell Assay IC50
T2 construct: endogenous in cells; host or cells: A549
T2 sequence (P15428 1-266): T1 sequence (P15428 1-266)
How it was run: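 IL-13-stimulated A549 lung carcinoma cells released PGE2, which was measured in supernatants by competitive HTRF with a Eu-cryptate anti-PGE2 antibody and labelled PGE2. Signal falls as PGE2 rises. IC50 values were derived from the binding data.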

Structure (SMILES)	IC50 [1]	IC50 [2]
Cn1cc2cc(-c3cnc4cc([C@H](O)C5CC(F)(F)C5)sc4c3)cnc2n1 (single isomer, unassigned) [Compound B78R]	17 nM	2.49 nM
Cn1cc2cc(-c3cc(-c4ccnn4C)c4cc(C(C)(O)C5CCC5)sc4n3)cnc2n1 (stereo not shown) [Compound C23, 1-cyclobutyl-1-(6-(2-methyl-2H-pyrazolo[3,4-b]pyridin-5-yl)-4-(1-methyl-1H-pyrazol-5-yl)thieno[2,3-b]pyridin-2-yl)ethanol]	0.543 nM	4.77 nM
Cn1nnc2cc(-c3ccc4ccc([C@H](O)C5CCOCC5)cc4n3)cnc21 (single isomer, unassigned) [Compound D3R]	21700 nM	289 nM
Cn1cc2cc(-c3ccc4cc([C@@H](O)C5CC5)sc4n3)cnc2n1 (single isomer, unassigned) [Compound B16S]	27 nM	9.58 nM
Cn1cc2cc(-c3ccc4cc(C(O)C(F)(F)F)sc4n3)cnc2n1 (stereo not shown) [Compound B23, 2,2,2-trifluoro-1-(6-(2-methyl-2H-pyrazolo[3,4-b]pyridin-5-yl)thieno[2,3-b]pyridin-2-yl)ethanol]	0.341 nM	1.41 nM
Cn1cc2cc(-c3cnc4sc([C@@H](O)C5CC(F)(F)C5)cc4c3)cnc2n1 (single isomer, unassigned) [Compound B77S]	154 nM	11.4 nM
Cc1cn2ccc(-c3ccc4cc(C5(O)CC(F)(F)C5)sc4n3)cc2n1 [Compound C44, 3,3-difluoro-1-(6-(2-methylimidazo[1,2-a]pyridin-7-yl)thieno[2,3-b]pyridin-2-yl)cyclobutanol]	7.56 nM	6.17 nM
Cn1cc2cc(-c3ccc4cc([C@H](O)[C@H]5CCC5(F)F)sc4n3)cnc2n1 (single isomer, unassigned) [Compound B94RR]	0.34 nM	0.661 nM
Cn1cc2cc(-c3ccc4sc([C@]5(O)C[C@@H](C(F)(F)F)C5)cc4n3)cnc2n1 [Compound C86C, cis-1-(5-(2-methyl-2H-pyrazolo[3,4-b]pyridin-5-yl)thieno[3,2-b]pyridin-2-yl)-3-(trifluoromethyl)cyclobutanol]	1.52 nM	4.12 nM
CCC(O)c1cc2ccc(-c3cnc4nn(C)cc4c3)nc2s1 (stereo not shown) [Compound B22, 1-(6-(2-methyl-2H-pyrazolo[3,4-b]pyridin-5-yl)thieno[2,3-b]pyridin-2-yl)-1-propanol]	0.513 nM	1.29 nM
Cc1c([C@@H](O)C2CC(F)(F)C2)sc2nc(-c3cnc4nn(C)cc4c3)ccc12 (single isomer, unassigned) [Compound B83S]	5.13 nM	1.11 nM
Cc1c([C@H](O)C2CCOCC2)sc2nc(-c3cnc4nn(C)cc4c3)ccc12 (single isomer, unassigned) [Compound B90R]	0.952 nM	0.857 nM
Cn1cc2cc(-c3ccc4cc(C(O)C5CCOCC5)sc4n3)cnc2n1 (stereo not shown) [Compound B15, (6-(2-methyl-2H-pyrazolo[3,4-b]pyridin-5-yl)thieno[2,3-b]pyridin-2-yl)(tetrahydro-2H-pyran-4-yl)methanol]	0.701 nM	0.957 nM
Cn1cc2cc(-c3ccc4cc([C@@H](O)[C@H]5CC5(F)F)sc4n3)cnc2n1 (single isomer, unassigned) [Compound B85SR]	1.22 nM	1.5 nM
Cn1cc2cc(-c3ccc4cc([C@H](O)C56CC(C5)C6)sc4n3)cnc2n1 (single isomer, unassigned) [Compound B87R]	0.494 nM	0.667 nM
Cn1cc2cc(-c3ccc4sc([C@@H](O)C5CC(F)(F)C5)nc4n3)cnc2n1 (single isomer, unassigned) [Compound B74S]	24.1 nM	4.48 nM
CC(O)c1cc2ccc(-c3cnc4nn(C)cc4c3)nc2s1 (stereo not shown) [Compound B25, 1-(6-(2-methyl-2H-pyrazolo[3,4-b]pyridin-5-yl)thieno[2,3-b]pyridin-2-yl)ethanol]	5.85 nM	16.4 nM
Cn1cc2cc(-c3ncc4cc([C@@H](O)C5CC(F)(F)C5)sc4n3)cnc2n1 (single isomer, unassigned) [Compound B75S]	25.4 nM	12.5 nM
Cn1cc2cc(-c3ncc4cc([C@H](O)C5CC(F)(F)C5)sc4n3)cnc2n1 (single isomer, unassigned) [Compound B75R]	0.382 nM	0.0162 nM
Cn1cc2cc(-c3ccc4cc(C5(O)CC(F)(F)C5)sc4c3)cnc2n1 [Compound C48, 3,3-difluoro-1-(6-(2-methyl-2H-pyrazolo[3,4-b]pyridin-5-yl)-1-benzothiophen-2-yl)cyclobutanol]	27.7 nM	7.36 nM

Next, values leading:

IC50 [1]	IC50 [2]	Structure (SMILES)
0.302 nM	2.43 nM	O[C@]1(c2cc3ccc(-c4cnc5[nH]nnc5c4)nc3s2)C[C@H](C(F)F)C1 [Compound C103C, cis-3-(difluoromethyl)-1-(6-(3H-[1,2,3]triazolo[4,5-b]pyridin-6-yl)thieno[2,3-b]pyridin-2-yl)cyclobutanol]
0.742 nM	1.22 nM	Cn1cc2cc(-c3ccc4cc([C@]5(O)C[C@@H](F)C5)sc4n3)cnc2n1 [Compound C40C, cis-3-fluoro-1-(6-(2-methyl-2H-pyrazolo[3,4-b]pyridin-5-yl)thieno[2,3-b]pyridin-2-yl)cyclobutanol]
1.65 nM	5.77 nM	CO[C@]1(C)C[C@](O)(c2cc3ccc(-c4cnc5c(c4)nnn5C)nc3s2)C1 (single isomer, unassigned) [Compound C102T, trans-3-methoxy-3-methyl-1-(6-(3-methyl-3H-[1,2,3]triazolo[4,5-b]pyridin-6-yl)thieno[2,3-b]pyridin-2-yl)cyclobutanol]
0.971 nM	2.53 nM	CO[C@]1(C)C[C@@](O)(c2cc3ccc(-c4cnc5c(c4)nnn5C)nc3s2)C1 (single isomer, unassigned) [Compound C102C, cis-3-methoxy-3-methyl-1-(6-(3-methyl-3H-[1,2,3]triazolo[4,5-b]pyridin-6-yl)thieno[2,3-b]pyridin-2-yl)cyclobutanol]
0.589 nM	3.15 nM	Cn1nnc2cc(-c3ccc4nc([C@]5(O)C[C@H](OC(F)(F)F)C5)sc4n3)cnc21 [Compound C112C, cis-1-(5-(3-methyl-3H-[1,2,3]triazolo[4,5-b]pyridin-6-yl)[1,3]thiazolo[5,4-b]pyridin-2-yl)-3-(trifluoromethoxy)cyclobutanol]
2.55 nM	1.08 nM	Cn1cnc2cc(-c3ccc4cc(C5(O)CC(F)(F)C5)sc4n3)cnc21 [Compound C33, 3,3-difluoro-1-(6-(3-methyl-3H-imidazo[4,5-b]pyridin-6-yl)thieno[2,3-b]pyridin-2-yl)cyclobutanol]
1.77 nM	4.82 nM	Cc1c([C@H](O)C2CCOCC2)sc2nc(-c3cnc4c(c3)nnn4C)ccc12 (single isomer, unassigned) [Compound B89R]
2280 nM	316 nM	CO[C@H]1CC[C@@]1(O)c1cc2ccc(-c3cnc4nn(C)cc4c3)nc2s1 (single isomer, unassigned) [Compound C70SS]
2.89 nM	7.6 nM	Cn1nnc2cc(-c3ncc4cc([C@]5(O)C[C@@H](C(F)F)C5)sc4n3)cnc21 [Compound C85C, cis-3-(difluoromethyl)-1-(2-(3-methyl-3H-[1,2,3]triazolo[4,5-b]pyridin-6-yl)thieno[2,3-d]pyrimidin-6-yl)cyclobutanol]
0.585 nM	0.832 nM	Cn1nnc2cc(-c3ccc4cc([C@]5(O)C[C@@H](C(F)(F)F)C5)sc4n3)cnc21 [Compound C79C, cis-1-(6-(3-methyl-3H-[1,2,3]triazolo[4,5-b]pyridin-6-yl)thieno[2,3-b]pyridin-2-yl)-3-(trifluoromethyl)cyclobutanol]
0.515 nM	1.44 nM	Cn1nnc2cc(-c3ccc4cc([C@]5(O)C[C@](C)(C#N)C5)sc4n3)cnc21 (single isomer, unassigned) [Compound C104T, trans-3-hydroxy-1-methyl-3-(6-(3-methyl-3H-[1,2,3]triazolo[4,5-b]pyridin-6-yl)thieno[2,3-b]pyridin-2-yl)cyclobutanecarbonitrile]
0.504 nM	0.499 nM	Cn1cc2cc(-c3ccc4cc([C@H](O)C5(C)CC(F)(F)C5)sc4n3)cnc2n1 (single isomer, unassigned) [Compound B86R]
922 nM	375 nM	Cc1c([C@@H](O)C2CCOCC2)sc2nc(-c3cnc4c(c3)nnn4C)ccc12 (single isomer, unassigned) [Compound B89S]
3.88 nM	11.3 nM	Cn1nnc2cc(-c3ccc4cc([C@]5(O)C[C@@](C)(C#N)C5)sc4n3)cnc21 (single isomer, unassigned) [Compound C104C, cis-3-hydroxy-1-methyl-3-(6-(3-methyl-3H-[1,2,3]triazolo[4,5-b]pyridin-6-yl)thieno[2,3-b]pyridin-2-yl)cyclobutanecarbonitrile]
0.557 nM	2.21 nM	CO[C@]1(C)C[C@@](O)(c2cc3cnc(-c4cnc5nn(C)cc5c4)nc3s2)C1 (single isomer, unassigned) [Compound C118C, cis-3-methoxy-3-methyl-1-(2-(2-methyl-2H-pyrazolo[3,4-b]pyridin-5-yl)thieno[2,3-d]pyrimidin-6-yl)cyclobutanol]
